Assay [1] relates to APPswe/PS1ΔE9 transgenic mice. Kind of assay: Histology of AD transgenic mice (Aβ plaque, PSD-95, SV2A). In kind it is in vivo, mouse. Particulars: for synapse density (PSD-95, SV2A) in dentate gyrus: 5 weeks. From the text:
FIGS. 10A-10C illustrate the finding that synaptic markers recover after treatment with a Fyn inhibitor. […] FIG. 10A: Representative sections from the labeled groups were stained with anti-PSD-95 antibody and the molecular layer of the dentate gyrus was imaged with a confocal microscope with a 60× objective lens. Scale bar, 3 μm. FIG. 10B: Fractional area of immunoreactive puncta for PSD-95. p<0.05, ANOVA with post-hoc pairwise Tukey comparisons. Mean±SEM, n=5-10 mice per group, two images per mouse. FIG. 10C: Fractional area of immunoreactive puncta for SV2. p<0.05, ANOVA with post-hoc pairwise Fisher's least significant difference (LSD). Mean±SEM, n=5-10 mice per group, two images per mouse.
The animals were familiarized with two objects on the first day of testing, and then observed on the next day with one novel object and one familiar object. The time spent exploring each object was scored by an observed unaware of drug treatment (FIG. 5). WT mice spend more time with the novel object. However, vehicle-treated APPswe/PS1ΔE9 mice spent equal time with both objects, consistent with impaired memory of familiarization on the previous day. […] The tissue from these mice is analyzed histologically, e.g., for Aβ plaque and synaptic markers (which are reduced in the transgenic mice). […] Without wishing to be limited by theory, this finding is consistent with the fact that saracatinib blocks the downstream action of Aβo on neurons, but not the upstream production of Aβ.
Upon analysis of a post-synaptic marker (PSD-95) or a presynaptic marker (SV2A) in the dentate gyrus of the hippocampus, an saracatinib-induced restoration of synapse density was observed. The twelve-month old transgenic mice have lost approximately 30-40% of synapses by the immunohistological measures.

Assay [2] concerns mice with closed head injury (CHI) and chronic variable stress (CVS). Kind of assay: Behavioral tests after closed head injury plus chronic variable stress. In kind it is in vivo, mouse. The method, then:
FIGS. 15A-15H illustrate the finding that Fyn inhibition rescues memory deficits after repeated mild head injury combined with chronic stress. FIG. 15A: Timeline for mice undergoing 14 days of chronic variable stress (CVS) and closed head injury (CHI) or Sham CVS & CHI paradigm. On Day 15, Rotarod testing was done to assess motor impairment in a subset of mice. The mice were treated with either AZD0530 (5 mg/kg/d) or Vehicle treatment for 10 weeks starting 24 hours after the final day of injury. This was followed by one week of behavioral testing, including novel object recognition test and Morris water maze prior to perfusion and immunohistochemistry. FIG. 15B: Rotarod prior to the treatment using the Sham and Injured groups. One-way ANOVA, p>0.05. Data are mean±SEM. n=8-9/group, each dot is one mouse. FIG. 15C: Novel object recognition test using the Sham mice and Injured mice with and without AZD0530 treatment. Two-way ANOVA, F(2,64)=5.258 p=0.007 for interaction of group with object, Sidak's multiple comparison test: Novel vs Familiar for Sham Vehicle (SV): p<0.0001, for Injured Vehicle (IV): p=0.99, for Injured AZD (IA): p=0.0002. Data are mean±SEM. n=9-13/group, each dot represents one mouse. FIG. 15D: Latency to reach a hidden platform in Morris water maze across 6 blocks of 4 swims for Sham mice and Injured mice with and without AZD0530 treatment. Data are mean±SEM. n=14-17/group. Two-way ANOVA for time and group with main effect of group, p<0.0001, F (2, 41)=47.24. Tukey's multiple comparison test: SV vs IV: p<0.0001, IV vs IA: p=0.98, SV vs IA: p<0.0001. FIG. 15E: Morris water maze probe trial for Sham or Injured mice treated with Vehicle or AZD0530, showing time in the Target quadrant. One way ANOVA: F(2,39)=9.410, p=0.0005, Tukey's multiple comparison test: SV vs IV: p=0.0003, IV vs IA: p=0.12, SV vs IA: p=0.05. Data are mean±SEM. n=13-15/group, each dot is one mouse. Dashed line indicates random chance performance. FIG. 15F: A second group of mice underwent a similar 14 days of chronic variable stress (CVS) plus closed head injury (CHI) or Sham CVS & CHI paradigm, and then starting on Day 121 were treated with either AZD0530 (5 mg/kg/d) or Vehicle for 10 weeks. The mice subsequently underwent Morris water maze testing. […] Data are mean±SEM. n=8-26/group. […] Data are mean±SEM. n=8-26/group, each dot is one mouse.
The injury model was based on the combination of Closed Head Injury (CHI) and Chronic Variable Stress (CVS). The Sham mice received Sham-CHI and Sham-CVS treatments.
Closed Head Injury (CHI) is a well-established mice injury model (Sangobowale et al, 2018, Neurotrauma 35:907-917). Mice were weighed prior to receiving Sham-CHI or CHI. […] Mice were placed on a heating pad to maintain body temperature while receiving the impact, as well as during the post-injury recovery period. The mice underwent a total of 14 consecutive days of CHI injury, once per day. The site of injury alternated between right and left hemispheres on consecutive days. Each CHI injury was performed 1-3 hours after that day's CVS exposure. Injury severity was assessed using time interval between injury and recovery of the righting reflex (Grin'kina et al., 2013, PLoS One 8, e53775). The mice were placed on a heat pad both while receiving the impact, as well as the period following the impact to preserve their core body temperature. Mice were returned to vivarium after restoration of their righting reflex and this was typically less than 5 minutes. […]

Where [3] appears, read: Injured mice, 5 mg/kg/day from Day 15, 10 weeks.

The results in this text go back to patent US11241434B2, “Compositions and methods for improving cognition in a subject” (Yale University, priority 2013, dated 2022).

In the case of `CN1CCN(CCOc2cc(OC3CCOCC3)c3c(Nc4c(Cl)ccc5c4OCO5)ncnc3c2)CC1` [saracatinib, N-(5-chloro-benzo[d][1,3]dioxol-4-yl)-7-(2-(4-methylpiperazin-1-yl)ethoxy)-5-(tetrahydro-2H-pyran-4-yloxy)quinazolin-4-amine], in assay [1] (APPswe/PS1ΔE9 mice), the Aβ plaque content entry is “No significant changes” and the “synapse density (PSD-95, SV2A) in dentate gyrus” value was “restored to WT control levels”. For the same compound, in assay [1] (WT mice), the “synapse density (PSD-95, SV2A) in dentate gyrus” value is listed as “no change”. Also, in assay [2] (setting [3]), the “Morris water maze learning trials” value is recorded as “severely impaired learning relative to Sham Vehicle” and the “Morris water maze probe trial memory for platform location” value is on record as “not statistically distinguishable from Sham Vehicle”. Moreover, in assay [2] (Injured mice, 5 mg/kg/day oral gavage from Day 15 (24 hours after final injury), 10 weeks), the novel object recognition result was “recognized familiar objects as successfully as Sham Vehicle mice”. The “Morris water maze probe trial memory” value in assay [2] (Injured mice, treatment from Day 121 (107 days after final injury), 10 weeks) is on record as “no evidence of improved memory”. In assay [2] (treatment from Day 121, 10 weeks), the “Morris water maze latency in learning trials, Injured AZD vs Injured Vehicle” value was “not significantly different from one another”.
